Source: publication PMC7238120, “Strong and Selective Inhibitory Effects of the Biflavonoid Selamariscina A against CYP2C8 and CYP2C9 Enzyme Activities in Human Liver Microsomes” (Pharmaceutics, 2020)

Tests used:
CYP2A6 = target: T1, CYP2A6 (Homo sapiens, UniProt P11509); experiment: Inhibition of CYP2A6 (coumarin) activity in pooled human liver microsomes, cocktail incubation; type: in vitro ADME; settings: substrate coumarin 5 µM; pooled HLMs; read-out: IC50, P450 2A6
T1 construct: incubation mixtures containing pooled human liver microsomes (HLMs, XTreme 200, XenoTech); tissue XenoTech XTreme 200; host or cells: pooled human liver microsomes
T1 sequence (P11509 1-494): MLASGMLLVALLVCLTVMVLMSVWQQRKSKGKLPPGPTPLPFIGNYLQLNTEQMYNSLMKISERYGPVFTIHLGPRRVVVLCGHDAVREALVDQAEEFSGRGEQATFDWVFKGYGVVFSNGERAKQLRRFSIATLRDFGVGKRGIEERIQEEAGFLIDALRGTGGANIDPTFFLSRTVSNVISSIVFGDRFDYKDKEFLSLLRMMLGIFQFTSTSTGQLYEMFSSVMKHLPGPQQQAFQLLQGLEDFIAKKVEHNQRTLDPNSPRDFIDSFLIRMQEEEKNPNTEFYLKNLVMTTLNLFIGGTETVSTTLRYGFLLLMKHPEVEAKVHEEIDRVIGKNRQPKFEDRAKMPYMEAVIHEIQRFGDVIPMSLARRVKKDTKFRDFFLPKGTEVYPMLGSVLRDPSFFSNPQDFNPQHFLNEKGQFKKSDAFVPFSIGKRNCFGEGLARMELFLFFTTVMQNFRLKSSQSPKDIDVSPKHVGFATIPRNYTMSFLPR
Method: (§1) The inhibitory potential of the five biflavonoids on the metabolism of nine P450 probe substrates was evaluated using previously developed methods with minor modifications. Biflavonoids were dissolved in methanol. The final concentration of methanol in the incubation mixture was 1.0% (v/v). We used these P450 probe substrates: phenacetin for CYP1A2, coumarin for CYP2A6, bupropion for CYP2B6, amodiaquine for CYP2C8, diclofenac for CYP2C9, omeprazole for CYP2C19, dextromethorphan for CYP2D6, chlorzoxazone for CYP2E1 and midazolam for CYP3A (Table 1). The incubation mixtures containing pooled human liver microsomes (HLMs, XTreme 200, XenoTech), P450 probe substrates, and inhibitor (0~20 µM) were pre-incubated at 37 °C for 5 min. The concentration range of the inhibitor varied (0, 0.002, 0.005, 0.02, 0.05, and 0.2 µM for CYP2C8; 0, 0.02, 0.05, 0.2, 0.5, and 2 µM for CYP2C9; 0, 0.5, 2, 5, 10, and 20 µM for other P450 isoforms). After pre-incubation, a reduced nicotinamide adenine dinucleotide phosphate (NADPH) generation system containing 1 unit/ml G6PDH, 1.3 mM β- nicotinamide adenine dinucleotide phosphate (β- NADP^+), 3.3 mM MgCl2, and 3.3 mM G6P was added to initiate a reaction, and further incubated for 10 min at 37 °C. The reaction was stopped by adding 50 μL of ice-cold acetonitrile containing 7 nM trimipramine (internal standard, IS). After centrifugation at 18,000 g (5 min, 4 °C), aliquots of supernatants were analyzed by LC–MS/MS (Shimadzu LCMS 8060 system, Shimadzu, Kyoto, Japan). All microsomal incubations were conducted in triplicate.
(§2) All metabolites and the IS were separated on a Kinetex XB-C18 column (100 × 2.10 mm, 2.6 μm, 100 Å; Phenomenex, Torrance, CA, USA) and analyzed using a Shimadzu LCMS 8060 triple-quadrupole mass spectrometer coupled with a Nexera X2 ultra high-performance liquid chromatography system (Shimadzu, Kyoto, Japan) equipped with an electrospray ionization interface. The mobile phase consisted of 0.1% formic acid in water (A) and 0.1% formic acid in acetonitrile (B). The elution condition was set as 8% B (0–0.5 min), 8%→60% B (0.5–5 min), 60% B (5–6 min), 60%→8% B (6–6.1 min) and 8% B (6.1–9 min) for the analysis of metabolites of P450 probe substrates and set as 0%→40% B (0–1 min), 40%→50% B (1–5 min), 50%→0% B (5–5.1 min), and 0% B (5.1–8 min) for the analysis of metabolites of UGT probe substrates. The flow rate was 0.2 mL/min. Electrospray ionization was performed in positive-ion mode at 4000 V or in negative-ion mode at −3500 V. The optimum operating conditions were determined as follows: vaporizer temperature, 300 °C; capillary temperature, 350 °C; collision gas (argon) pressure, 1.5 mTorr. Quantitation was conducted in selected reaction monitoring (SRM) modes with the precursor-to-product ion transition for each metabolite (Table 1 and Table 2).
(§3) We analyzed the data with Shimadzu LabSolution LC–MS software. The IC50 values were calculated by WinNonlin software (Pharsight, Mountain View, CA, USA). The type of inhibition and the apparent kinetic parameters for inhibitory activity (Ki) were determined by following several criteria: visual inspection of Dixon plots, Lineweaver–Burk double reciprocal plots, and secondary plots of Lineweaver–Burk plots versus biflavonoid concentrations, the size of the sum of squares of the residuals, Akaike Information Criteria values, the S.E. and 95% confidence interval of the parameter estimates from the nonlinear regression analysis using the WinNonlin software. The models tested included competitive, competitive partial, noncompetitive, noncompetitive partial, uncompetitive, uncompetitive partial, and mixed-type inhibition.

CYP2D6 = target: T2, CYP2D6 (Homo sapiens, UniProt P10635); experiment: Inhibition of CYP2D6 (dextromethorphan) activity in pooled human liver microsomes; type: in vitro ADME; settings: substrate dextromethorphan 5 µM; pooled HLMs; read-out: IC50, P450 2D6
T2 construct: incubation mixtures containing pooled human liver microsomes (HLMs, XTreme 200, XenoTech); tissue XenoTech XTreme 200; host or cells: pooled human liver microsomes
T2 sequence (P10635 whole entry): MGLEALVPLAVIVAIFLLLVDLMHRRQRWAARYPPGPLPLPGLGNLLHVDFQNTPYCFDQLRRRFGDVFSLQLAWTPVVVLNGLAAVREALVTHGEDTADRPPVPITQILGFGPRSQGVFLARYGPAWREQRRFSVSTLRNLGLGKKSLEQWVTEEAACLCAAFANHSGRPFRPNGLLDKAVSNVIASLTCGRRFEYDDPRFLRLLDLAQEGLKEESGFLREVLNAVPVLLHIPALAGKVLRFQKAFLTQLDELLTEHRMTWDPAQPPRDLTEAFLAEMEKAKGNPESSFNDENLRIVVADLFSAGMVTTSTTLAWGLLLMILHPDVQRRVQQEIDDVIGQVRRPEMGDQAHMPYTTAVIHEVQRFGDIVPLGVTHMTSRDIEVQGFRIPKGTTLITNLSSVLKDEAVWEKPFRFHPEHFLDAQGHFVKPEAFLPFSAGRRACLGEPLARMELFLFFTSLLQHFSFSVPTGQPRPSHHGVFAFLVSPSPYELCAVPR
Method: as §1, §2, §3

**Q.** Which results are given for `O=c1cc(-c2ccc(O)c(-c3c(O)cc(O)c4c(=O)cc(-c5ccc(O)cc5)oc34)c2)oc2cc(O)cc(O)c12` [amentoflavone]?
**A.** IC50 (CYP2A6): 11.9 µM; IC50 (CYP2D6): 2600 nM

**Q.** With `O=c1cc(-c2ccc(O)cc2)oc2c(-c3c(O)cc(O)c4c(=O)cc(-c5ccc(O)cc5)oc34)c(O)cc(O)c12` [cupressuflavone] as the compound, how does the IC50 (CYP2A6) read?
**A.** > 20 µM

**Q.** And the IC50 (CYP2D6)?
**A.** 2700 nM

**Q.** What does the source list for `CC(C)(O)c1ccccc1CC[C@@H](SCC1(CC(=O)O)CC1)c1cccc(/C=C/c2ccc3ccc(Cl)cc3n2)c1` [montelukast, reference compound]?
**A.** IC50 (CYP2A6): > 50 µM; IC50 (CYP2D6): > 50000 nM

**Q.** How did the IC50 (CYP2A6) turn out when `O=c1cc(-c2ccc(O)c(-c3c(O)cc4oc(-c5ccc(O)cc5)cc(=O)c4c3O)c2)oc2cc(O)cc(O)c12` [robustaflavone] was run?
**A.** 11.8 µM

**Q.** What about the IC50 (CYP2D6) of the same compound?
**A.** 2200 nM

**Q.** Which results are given for `O=C1CC(c2cc(-c3c(O)ccc4c(=O)cc(-c5ccc(O)cc5)oc34)c(O)cc2O)Oc2cc(O)cc(O)c21` (stereo not drawn) [selamariscina A]?
**A.** IC50 (CYP2A6): 11.6 µM; IC50 (CYP2D6): 10600 nM

**Q.** With `O=c1cc(-c2ccc(O)c(-c3c(-c4ccc(O)cc4)oc4cc(O)cc(O)c4c3=O)c2)oc2cc(O)cc(O)c12` [taiwaniaflavone] as the compound, how does the IC50 (CYP2A6) read?
**A.** 10.6 µM

**Q.** And the IC50 (CYP2D6)?
**A.** 3200 nM
